According to patent US7250157B2, “Dermatological compositions and methods” (Applied Genetics Incorporated Dermatics, priority 1996, dated 2007):
Counter-ions that a name gives are not always drawn. Values belong to the molecule of their own block, whether it stands above or below them.

System: tyrosinase activity in S91 mouse melanoma cells
Assay: Induction of tyrosinase activity in S91 cells
Conditions: for relative melanogenic potency in S91 cells (in words): Table 19 data

Molecule: 1-(exo & endo-2-norbornyl-)-propan-1,2-diol
Fold Induction of Tyrosinase Relative to Controls (0.5 mM (Table 16)): 2.2X | Fold Induction of Tyrosinase Relative to Controls (1 mM (Table 16)): 4.2X | Fold Induction of Tyrosinase Relative to Controls (2.5 mM (Table 16)): 48.5X | Fold Induction of Tyrosinase Relative to Controls (5 mM (Table 16)): 2.0X

Molecule: 2,3-cis & trans-bornanediol
Fold Induction of Tyrosinase Relative to Controls (0.5 mM (Table 19)): 9.9X | Fold Induction of Tyrosinase Relative to Controls (1 mM (Table 19)): 37.3X | Fold Induction of Tyrosinase Relative to Controls (2.5 mM (Table 19)): 99.7X | relative melanogenic potency in S91 cells (in words): approximately twice as much melanogenic activity as (1R, 2R, 3S, 5R)-(−)-pinanediol

Molecule: 2,5 & 6,7-norbornanetriol
Fold Induction of Tyrosinase Relative to Controls (1 mM (Table 15)): 5.1X | Fold Induction of Tyrosinase Relative to Controls (2 mM (Table 15)): 5.1X

Molecule: C=C(C)C1CC=C(C)CC1 (single isomer, unassigned; (+)) [R-(+)-limonene, (+)-p-mentha-1,8-diene]
relative melanogenic potency in S91 cells (in words): little or no melanogenic activity

Molecule: CC1(C)C2CCC(CO)[C@]1(O)C2 (stereo in doubt) [(1R)-(−)-trans-pinane-1,10-diol]
Fold Induction of Tyrosinase Relative to Controls (1 mM (Table 19)): 14.3X | Fold Induction of Tyrosinase Relative to Controls (2.5 mM (Table 19)): 96.0X | Fold Induction of Tyrosinase Relative to Controls (5 mM (Table 19)): 36.8X | relative melanogenic potency in S91 cells (in words): almost-identical to that of (1R, 2R, 3S, 5R)-(−)-pinanediol

Molecule: OC[C@@H]1CCCC[C@@H]1CO [1,2-cis-cyclohexanedimethanol]
Fold Induction of Tyrosinase Relative to Controls (1 mM (Table 16)): 0.9X | Fold Induction of Tyrosinase Relative to Controls (2.5 mM (Table 16)): 6.1X | detachment of cells from culture dishes (no tyrosinase analysis) (5 mM (Table 16)): NA^

Molecule: OCC1CCC(CO)CC1 (centres unmarked) [1,4-cyclohexanedimethanol]
Fold Induction of Tyrosinase Relative to Controls (1 mM (Table 16)): 1.2X | Fold Induction of Tyrosinase Relative to Controls (2.5 mM (Table 16)): 1.7X | Fold Induction of Tyrosinase Relative to Controls (5 mM (Table 16)): 3.2X

Molecule: OC1C2CCC(C2)C1O (stereo not drawn) [2,3-c/e-NBaneD, 2,3-cis/exo-Norbornanediol]
induction of tyrosinase in S91 cells compared with 5-NBene-2,2-DM (FIG. 2): Lesser induction

Molecule: CC1(C)C2CCC1(C)C(O)C2O (stereo not drawn) [2,3-cis/exo-bornanediol]
Fold Induction of Tyrosinase Relative to Controls (0.5 mM (Table 19)): 10.2X | Fold Induction of Tyrosinase Relative to Controls (1 mM (Table 19)): 28.5X | Fold Induction of Tyrosinase Relative to Controls (2.5 mM (Table 19)): 101X | relative melanogenic potency in S91 cells (in words): more than twice as potent as 2,3-trans-bornanediol

Molecule: CC1(C)C2CCC1(C)C(O)C2O (stereo not drawn) [2,3-trans-bornanediol]
Fold Induction of Tyrosinase Relative to Controls (0.5 mM (Table 19)): 4.7X | Fold Induction of Tyrosinase Relative to Controls (1 mM (Table 19)): 12.8X | Fold Induction of Tyrosinase Relative to Controls (2.5 mM (Table 19)): 22.1X

Molecule: OC1CC2CCC1C2O (centres unmarked) [2,7-norbornanediol]
Fold Induction of Tyrosinase Relative to Controls (1 mM (Table 16)): 0.8X | Fold Induction of Tyrosinase Relative to Controls (2.5 mM (Table 16)): 1.6X | Fold Induction of Tyrosinase Relative to Controls (5 mM (Table 16)): 3.5X

Molecule: OCC1(O)CC2CCC1C2 (centres unmarked) [2-hydroxy-2-norbornanemethanol]
Fold Induction of Tyrosinase Relative to Controls (1 mM (Table 16)): 9.2X | Fold Induction of Tyrosinase Relative to Controls (2.5 mM (Table 16)): 15.5X | Fold Induction of Tyrosinase Relative to Controls (5 mM (Table 16)): 45.0X

Molecule: O=C(O)CC1CC2CCC1C2 (centres unmarked) [2-norbornaneacetic acid]
Fold Induction of Tyrosinase Relative to Controls (1 mM (Table 15)): 4.6X | Fold Induction of Tyrosinase Relative to Controls (5 mM (Table 15)): 12.9X

Molecule: OCC1(CO)CC=CCC1 [3-cyclohexane-1,1-dimethanol]
Fold Induction of Tyrosinase Relative to Controls (1 mM (Table 16)): 1.4X | Fold Induction of Tyrosinase Relative to Controls (2.5 mM (Table 16)): 2.3X | Fold Induction of Tyrosinase Relative to Controls (5 mM (Table 16)): 7.0X

Molecule: O=C(O)[C@@H]1[C@H](C(=O)O)[C@@H]2C=C[C@H]1C2 [5-norbornene-2,3-cis/endodicarboxylic acid]
Fold Induction of Tyrosinase Relative to Controls (1 mM (Table 15)): 2.2X | Fold Induction of Tyrosinase Relative to Controls (5 mM (Table 15)): 1.0X

Molecule: CC1(C)C2CC=C(CO)[C@@H]1C2 [(1R)-(−)-myrtenol, (1R)-2-pinen-10-ol]
Fold Induction of Tyrosinase Relative to Controls (0.5 mM (Table 19)): 13.6X | Fold Induction of Tyrosinase Relative to Controls (1 mM (Table 19)): 17.6X | Fold Induction of Tyrosinase Relative to Controls (2.5 mM (Table 19)): 2.2X

Molecule: CC1CCC2CC1C2(C)C [(1R)-(−)-α-pinane]
Fold Induction of Tyrosinase Relative to Controls (0.5 mM (Table 19)): 1.2X | Fold Induction of Tyrosinase Relative to Controls (1 mM (Table 19)): 0.8X | Fold Induction of Tyrosinase Relative to Controls (2.5 mM (Table 19)): 0.9X

Molecule: CC(C)[C@@H]1CC[C@@H](C)C[C@H]1O [(1R,2S,5R)-(−)-menthol, (1R,2S,5R)-2-isopropyl-5-methylcyclohexanol]
Fold Induction of Tyrosinase Relative to Controls (0.5 mM (Table 19)): 2.0X | Fold Induction of Tyrosinase Relative to Controls (1 mM (Table 19)): 1.3X

Molecule: Cl.Cl.O=S(=O)(NCCNCC=Cc1ccc(Br)cc1)c1cccc2cnccc12 [H-89, reference compound]
effect on induction of tyrosinase by 5-NBene-2,2-DM in S91 cells (in words): augmentation of basal and 5-NBene-2,2-DM-induced tyrosinase levels | Tyrosinase Relative to Control (1 uM H-89): 1.3X | Tyrosinase dpm/hr/ug Protein (1 uM H-89): 507 dpm/hr/ug Protein | Tyrosinase Relative to Control (10 uM H-89): 3.1X | Tyrosinase dpm/hr/ug Protein (10 uM H-89): 1236 dpm/hr/ug Protein

Molecule: COC(=O)[C@@]1(OC)C[C@H]2O[C@]1(C)n1c3ccccc3c3c4c(c5c6ccccc6n2c5c31)C(=O)N(C)C4 [KT5823, reference compound]
effect on induction of melanogenesis by 5-NBene-2,2-DM in S91 cells (in words): reduced induction of melanogenesis by 5-NBene-2,2-DM

Molecule: O=C1C(Nc2ccccc2)=CC(=O)c2ncccc21 [LY83583, 6-anilino-5,8-quinolinequinone, reference compound]
effect on induction of melanogenesis by 5-NBene-2,2-DM in S91 cells (in words): reduced induction of melanogenesis by 5-NBene-2,2-DM

Continued, in another order:

Fold Induction of Tyrosinase Relative to Controls (1 mM (Table 15)): 2.7X | Fold Induction of Tyrosinase Relative to Controls (5 mM (Table 15)): 2.3X
Molecule: O=COC1CC2CCC1C2 (racemic) [± exo-2-norbornyl formate]

Fold Induction of Tyrosinase Relative to Controls (0.5 mM (Table 19)): 1.0X | Fold Induction of Tyrosinase Relative to Controls (1 mM (Table 19)): 3.0X | Fold Induction of Tyrosinase Relative to Controls (2.5 mM (Table 19)): 15.5X
Molecule: CC1=C[C@H](O)[C@H]2C[C@@H]1C2(C)C (relative stereo) [(S)-cis-verbenol]

Fold Induction of Tyrosinase Relative to Controls (0.5 mM (Table 19)): 5.2X | Fold Induction of Tyrosinase Relative to Controls (1 mM (Table 19)): 13.2X | Fold Induction of Tyrosinase Relative to Controls (2.5 mM (Table 19)): 21.0X | Fold Induction of Tyrosinase Relative to Controls (5 mM (Table 19)): 7.3X
Molecule: C[C@@H]1CC[C@@H](C(C)(C)O)[C@H](O)C1 (relative stereo) [trans-p-menthane-3,8-diol]

Fold Induction of Tyrosinase Relative to Controls (0.5 mM (Table 19)): 2.3X | Fold Induction of Tyrosinase Relative to Controls (1 mM (Table 19)): 3.3X | detachment of cells from culture dishes (no tyrosinase analysis) (2.5 mM (Table 19)): NA^2
Molecule: CC1C(O)CC2CC1C2(C)C (single isomer, unassigned; (-)) [(−)-isopinocampheol]
toxicity to S91 cells (in words) (higher concentrations tested (Table 19)): resulted in detachment of cells from culture dishes

Fold Induction of Tyrosinase Relative to Controls (0.5 mM (Table 19)): 1.4X | Fold Induction of Tyrosinase Relative to Controls (1 mM (Table 19)): 1.1X | Fold Induction of Tyrosinase Relative to Controls (2.5 mM (Table 19)): 1.4X | Fold Induction of Tyrosinase Relative to Controls (5 mM (Table 19)): 1.2X
Molecule: CC1CCC2CC1C2(C)C [(1S)-(−)-α-pinane]

Fold Induction of Tyrosinase Relative to Controls (0.5 mM (Table 19)): 0.7X | Fold Induction of Tyrosinase Relative to Controls (1 mM (Table 19)): 1.3X
Molecule: CC(C)[C@H]1CC[C@H](C)C[C@@H]1O [(1S,2R,5S)-(+)-menthol, (1S,2R,5S)-2-isopropyl-5-methylcyclohexanol]

Fold Induction of Tyrosinase Relative to Controls (1 mM (Table 19)): 9.9X | Fold Induction of Tyrosinase Relative to Controls (2.5 mM (Table 19)): 68.4X | Fold Induction of Tyrosinase Relative to Controls (5 mM (Table 19)): 39.9X
Molecule: CC1(C)[C@@H]2C[C@@H](O)[C@@](C)(O)[C@H]1C2 [(1S,2S,3R,5S)-(+)-pinanediol]

Fold Induction of Tyrosinase Relative to Controls (1 mM (Table 19)): 4.1X | Fold Induction of Tyrosinase Relative to Controls (2.5 mM (Table 19)): 37.1X | Fold Induction of Tyrosinase Relative to Controls (5 mM (Table 19)): 94.9X
Molecule: CC1(C)[C@@H]2CC(=O)[C@@](C)(O)[C@H]1C2 [(1S,2S,5S,)-2-hydroxy-3-pinanone]
relative melanogenic potency in S91 cells (in words): about half as potent as (1R, 2R, 3S, 5R)-(−)-pinanediol

Fold Induction of Tyrosinase Relative to Controls (0.5 mM (Table 19)): 6.2X | Fold Induction of Tyrosinase Relative to Controls (1 mM (Table 19)): 7.1X | Fold Induction of Tyrosinase Relative to Controls (2.5 mM (Table 19)): 4.7X
Molecule: CC1=CC[C@@H](C(C)(C)O)CC1 [(−)-a-terpineol, (S)-p-menth-1-en-8-ol]
